Among the data in ChEMBL document CHEMBL3886432, “Purinylpyridinylamino-2,4-difluorophenyl sulfonamide derivative, pharmaceutically acceptable salt thereof, preparation method thereof, and pharmaceutical composition with inhibitory activity against Raf kinase, containing same as active ingredient” (2015) are IC50 values, retold here.

pIC50: −log10 of the molar value.

In the assay the target is Serine/threonine-protein kinase B-raf (Homo sapiens, UniProt P15056). Description: The solutions in the tube were collected on the bottom via centrifugation and were reacted at 30° C. for 30 minutes.

In general, pIC50 refers to −log10 of the IC50, conventionally taken in molar units. The low end stands for a high IC50, the high end for a low IC50.

Serine/threonine-protein kinase B-raf, sequence (P15056 whole entry): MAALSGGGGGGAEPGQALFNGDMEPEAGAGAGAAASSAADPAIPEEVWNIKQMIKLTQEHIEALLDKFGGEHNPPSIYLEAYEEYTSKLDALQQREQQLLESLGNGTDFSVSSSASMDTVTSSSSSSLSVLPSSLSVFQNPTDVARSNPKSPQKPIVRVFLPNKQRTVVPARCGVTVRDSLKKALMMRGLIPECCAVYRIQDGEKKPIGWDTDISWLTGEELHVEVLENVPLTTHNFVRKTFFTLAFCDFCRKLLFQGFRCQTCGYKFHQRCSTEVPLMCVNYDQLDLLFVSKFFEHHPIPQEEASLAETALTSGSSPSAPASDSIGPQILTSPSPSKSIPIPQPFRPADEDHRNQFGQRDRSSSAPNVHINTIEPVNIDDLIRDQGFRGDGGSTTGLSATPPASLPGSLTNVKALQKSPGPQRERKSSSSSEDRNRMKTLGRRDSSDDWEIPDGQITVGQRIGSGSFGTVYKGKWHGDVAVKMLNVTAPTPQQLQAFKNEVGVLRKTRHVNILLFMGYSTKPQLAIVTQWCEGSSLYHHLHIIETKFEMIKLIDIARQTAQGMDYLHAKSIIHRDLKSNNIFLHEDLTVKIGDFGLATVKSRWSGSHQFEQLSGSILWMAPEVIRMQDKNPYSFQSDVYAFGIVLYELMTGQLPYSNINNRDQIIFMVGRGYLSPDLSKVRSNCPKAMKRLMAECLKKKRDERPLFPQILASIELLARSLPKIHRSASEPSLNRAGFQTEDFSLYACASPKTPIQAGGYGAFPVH

`O=S(=O)(Nc1ccc(F)c(Nc2ncccc2-c2ncnc3[nH]cnc23)c1F)c1ccc(Cl)s1` showed a pIC50 of 7.70.
